The values that follow come from patent US9314485B2, “Use of PI3K M-TOR and AKT inhibitors to induce FOXP3 expression and generate regulatory T cells” (Medical Research Council, priority 2006, dated 2016).

Molecules are shown by their SMILES.

The term IC50 denotes the point on the concentration scale where inhibition reaches its midpoint.

The subject of test [1] is naive CD62LhiCD4+CD25− LN T cells. Kind of test: Foxp3 induction in newly activated naive CD4 T cells (intracellular staining). Format: cell-based, mouse. The procedure: Mouse strains, cell sorting and culture Animal work was carried out according the Animals (Scientific Procedures) Act, UK. Lymph node (LN) cells were stained, analysed and sorted by flow cytometry as described (Cobb et al 2005 J. Exp. Med. 201: 1367-1373). Intracellular staining for Foxp3 protein was done as advised by the manufacturers (eBiosciences.com). The phosphorylation syatus of S6 ribosomal protein was determined using anti pS6 Ser235/236 (Cellsignaling cat.no. 2211, http://www.cellsignal.com) using the eBioscience Foxp3 staining kit and anti rabbit IgG-FITC or IgG-Cy5 (Jackson Immunoresearch). For induction of Foxp3 expression, sorted LN CD4+ CD25− CD62Lhi T cells were cultured at 1-3×10^6/ml with plate bound anti-TCRβ. […] After 18 hours the cells were either left in place for continued TCR stimulation or moved to uncoated wells with the indicated additives. To assess regulatory function, CD4 T cells cultured as indicated were titrated into round bottom wells containing either 1×10^5 CFSE labeled total LN cells or 5×10^4 CFSE labeled CD4^+ CD25^− T cells and 1×10^5 mitomycin-C treated (25 μg/ml, 20 min, 37° C.) T cell depleted splenocytes with the indicated concentrations of anti CD3 (2C11, Pharmingen). CD4 T cell CFSE profiles were recorded between 48 and 72 hours later.
Mice, Cell Sorting and Culture. Animal work was carried out according to the Animals (Scientific Procedures) Act, UK. Lymph node (LN) cells or thymocytes from wild type were stained, analysed and sorted by flow cytometry as described (Thompson et al., 2007 Immunity VoI 26 pp 335-344) from wild type (C57BL/6, BALB/c or C57BL/6×129) mice or from Rag1 deficient H2^b AND TCR transgenic mice. Antigen presenting cells were derived from bone marrow in the presence of GM-CSF and incubated with antigenic peptide. Intracellular staining for Foxp3 protein was done as advised by the manufacturers (eBiosciences.com). The phosphorylation status of S6 ribosomal protein was determined using anti pS6 Ser235/236 (Cell Signaling cat.no. 2211, http://www.cellsignal.com) using the eBioscience Foxp3 staining kit and anti rabbit IgG-FITC or IgG-Cy5 (Jackson ImmunoResearch). […] After 18 hours the cells were either left in place for continued TCR stimulation or moved to uncoated wells with the indicated additives. To assess regulatory function, CD4 T cells cultured as indicated were titrated into round bottom wells containing either 1×10^5 CFSE labeled total LN cells or 5×10^4 CFSE labeled CD4^+CD25^− T cells and 1×10^5 mitomycin-C treated (25 μg/ml, 20 min, 37° C.) T cell depleted splenocytes with the indicated concentrations of anti CD3 (2C11, Pharmingen). CD4 T cell CFSE profiles were recorded between 48 and 72 hours later.

The target in another test is PI3KC2α (Homo sapiens, UniProt O00443). Particulars: unit inferred; read-out: Specificity for PI3KC2α (IC50 determined in vitro); cited from earlier work.
A further test deals with PI3KC2β (Homo sapiens, UniProt O00750). Particulars: unit inferred; read-out: Specificity for PI3KC2β (IC50 determined in vitro); cited from earlier work.
The target in a further test is PI3KC2γ (Homo sapiens, UniProt O75747). The following applies: unit inferred; read-out: Specificity for PI3KC2γ (IC50 determined in vitro); cited from earlier work.
For a further test, the target named is hsVPS34 (Homo sapiens, UniProt Q8NEB9). Particulars: unit inferred; read-out: Specificity for hsVPS34 (IC50 determined in vitro); cited from earlier work.
Another test concerns the target PI4KIIα (Homo sapiens, UniProt Q9BTU6). The following applies: unit inferred; read-out: Specificity for PI4KIIα (IC50 determined in vitro); cited from earlier work.
The target of another test is PI4KIIIα (Homo sapiens, UniProt P42356). Particulars: unit inferred; read-out: Specificity for PI4KIIIα (IC50 determined in vitro); cited from earlier work.
PI4KIIIα, sequence (P42356 whole entry): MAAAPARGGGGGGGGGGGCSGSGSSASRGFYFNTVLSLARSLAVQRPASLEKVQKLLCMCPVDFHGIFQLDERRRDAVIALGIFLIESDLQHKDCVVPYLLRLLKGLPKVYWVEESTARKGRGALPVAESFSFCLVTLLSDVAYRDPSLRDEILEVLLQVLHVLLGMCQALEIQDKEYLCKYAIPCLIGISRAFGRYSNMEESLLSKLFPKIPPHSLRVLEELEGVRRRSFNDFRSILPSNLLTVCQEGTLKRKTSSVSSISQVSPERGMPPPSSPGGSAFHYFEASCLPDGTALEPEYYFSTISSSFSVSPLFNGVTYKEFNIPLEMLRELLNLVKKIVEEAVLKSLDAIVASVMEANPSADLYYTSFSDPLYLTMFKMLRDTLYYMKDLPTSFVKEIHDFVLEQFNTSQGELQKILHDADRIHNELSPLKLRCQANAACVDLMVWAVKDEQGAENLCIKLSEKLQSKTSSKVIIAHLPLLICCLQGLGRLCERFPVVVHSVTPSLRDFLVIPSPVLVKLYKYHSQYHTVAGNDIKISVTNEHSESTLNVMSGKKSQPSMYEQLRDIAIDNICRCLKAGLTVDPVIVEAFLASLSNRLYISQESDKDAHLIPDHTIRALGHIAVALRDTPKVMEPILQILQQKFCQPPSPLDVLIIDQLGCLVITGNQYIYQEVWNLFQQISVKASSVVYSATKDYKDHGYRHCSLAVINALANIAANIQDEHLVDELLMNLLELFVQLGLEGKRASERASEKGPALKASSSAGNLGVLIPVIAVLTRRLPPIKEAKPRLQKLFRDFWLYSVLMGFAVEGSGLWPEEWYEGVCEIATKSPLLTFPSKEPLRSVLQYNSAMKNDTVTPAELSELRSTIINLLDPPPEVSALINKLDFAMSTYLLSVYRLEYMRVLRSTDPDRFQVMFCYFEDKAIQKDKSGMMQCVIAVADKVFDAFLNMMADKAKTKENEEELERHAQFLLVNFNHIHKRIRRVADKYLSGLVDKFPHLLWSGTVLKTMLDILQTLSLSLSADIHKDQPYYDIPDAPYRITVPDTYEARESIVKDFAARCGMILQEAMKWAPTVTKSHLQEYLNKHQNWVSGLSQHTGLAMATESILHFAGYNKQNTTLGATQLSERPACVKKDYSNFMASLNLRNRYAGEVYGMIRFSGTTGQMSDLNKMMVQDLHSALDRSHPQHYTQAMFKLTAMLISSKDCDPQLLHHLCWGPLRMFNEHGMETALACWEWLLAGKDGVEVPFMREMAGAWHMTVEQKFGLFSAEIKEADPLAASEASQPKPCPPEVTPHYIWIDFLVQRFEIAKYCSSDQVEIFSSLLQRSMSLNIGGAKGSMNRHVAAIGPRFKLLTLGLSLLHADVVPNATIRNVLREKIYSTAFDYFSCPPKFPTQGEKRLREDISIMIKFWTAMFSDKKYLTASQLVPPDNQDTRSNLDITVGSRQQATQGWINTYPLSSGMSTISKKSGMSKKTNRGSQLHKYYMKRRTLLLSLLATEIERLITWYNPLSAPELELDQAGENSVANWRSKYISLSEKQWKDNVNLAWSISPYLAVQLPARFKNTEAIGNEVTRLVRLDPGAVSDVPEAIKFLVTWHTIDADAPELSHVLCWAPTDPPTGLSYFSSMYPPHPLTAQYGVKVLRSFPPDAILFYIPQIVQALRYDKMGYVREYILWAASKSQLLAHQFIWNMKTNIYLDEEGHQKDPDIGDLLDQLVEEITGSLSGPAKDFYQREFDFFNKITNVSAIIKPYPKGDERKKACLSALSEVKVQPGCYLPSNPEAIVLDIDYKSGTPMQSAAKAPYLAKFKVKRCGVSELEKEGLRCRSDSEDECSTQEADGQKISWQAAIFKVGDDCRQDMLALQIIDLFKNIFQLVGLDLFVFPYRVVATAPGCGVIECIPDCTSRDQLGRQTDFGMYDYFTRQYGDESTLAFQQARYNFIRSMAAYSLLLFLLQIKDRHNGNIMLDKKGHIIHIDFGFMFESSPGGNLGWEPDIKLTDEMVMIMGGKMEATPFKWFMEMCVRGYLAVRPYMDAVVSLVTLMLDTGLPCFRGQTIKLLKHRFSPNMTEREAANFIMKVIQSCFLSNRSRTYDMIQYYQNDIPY
In another test the target is PI4KIIIβ (Homo sapiens, UniProt Q9UBF8). Particulars: unit inferred; read-out: Specificity for PI4KIIIβ (IC50 determined in vitro); cited from earlier work.
The target in the next test is ATR (Homo sapiens, UniProt Q13535). Particulars: unit inferred; read-out: Specificity for ATR (IC50 determined in vitro); cited from earlier work.
In another test the target is ATM (Homo sapiens, UniProt Q13315). The following applies: unit inferred; read-out: Specificity for ATM (IC50 determined in vitro); cited from earlier work.
ATM, sequence (Q13315 whole entry, species assumed): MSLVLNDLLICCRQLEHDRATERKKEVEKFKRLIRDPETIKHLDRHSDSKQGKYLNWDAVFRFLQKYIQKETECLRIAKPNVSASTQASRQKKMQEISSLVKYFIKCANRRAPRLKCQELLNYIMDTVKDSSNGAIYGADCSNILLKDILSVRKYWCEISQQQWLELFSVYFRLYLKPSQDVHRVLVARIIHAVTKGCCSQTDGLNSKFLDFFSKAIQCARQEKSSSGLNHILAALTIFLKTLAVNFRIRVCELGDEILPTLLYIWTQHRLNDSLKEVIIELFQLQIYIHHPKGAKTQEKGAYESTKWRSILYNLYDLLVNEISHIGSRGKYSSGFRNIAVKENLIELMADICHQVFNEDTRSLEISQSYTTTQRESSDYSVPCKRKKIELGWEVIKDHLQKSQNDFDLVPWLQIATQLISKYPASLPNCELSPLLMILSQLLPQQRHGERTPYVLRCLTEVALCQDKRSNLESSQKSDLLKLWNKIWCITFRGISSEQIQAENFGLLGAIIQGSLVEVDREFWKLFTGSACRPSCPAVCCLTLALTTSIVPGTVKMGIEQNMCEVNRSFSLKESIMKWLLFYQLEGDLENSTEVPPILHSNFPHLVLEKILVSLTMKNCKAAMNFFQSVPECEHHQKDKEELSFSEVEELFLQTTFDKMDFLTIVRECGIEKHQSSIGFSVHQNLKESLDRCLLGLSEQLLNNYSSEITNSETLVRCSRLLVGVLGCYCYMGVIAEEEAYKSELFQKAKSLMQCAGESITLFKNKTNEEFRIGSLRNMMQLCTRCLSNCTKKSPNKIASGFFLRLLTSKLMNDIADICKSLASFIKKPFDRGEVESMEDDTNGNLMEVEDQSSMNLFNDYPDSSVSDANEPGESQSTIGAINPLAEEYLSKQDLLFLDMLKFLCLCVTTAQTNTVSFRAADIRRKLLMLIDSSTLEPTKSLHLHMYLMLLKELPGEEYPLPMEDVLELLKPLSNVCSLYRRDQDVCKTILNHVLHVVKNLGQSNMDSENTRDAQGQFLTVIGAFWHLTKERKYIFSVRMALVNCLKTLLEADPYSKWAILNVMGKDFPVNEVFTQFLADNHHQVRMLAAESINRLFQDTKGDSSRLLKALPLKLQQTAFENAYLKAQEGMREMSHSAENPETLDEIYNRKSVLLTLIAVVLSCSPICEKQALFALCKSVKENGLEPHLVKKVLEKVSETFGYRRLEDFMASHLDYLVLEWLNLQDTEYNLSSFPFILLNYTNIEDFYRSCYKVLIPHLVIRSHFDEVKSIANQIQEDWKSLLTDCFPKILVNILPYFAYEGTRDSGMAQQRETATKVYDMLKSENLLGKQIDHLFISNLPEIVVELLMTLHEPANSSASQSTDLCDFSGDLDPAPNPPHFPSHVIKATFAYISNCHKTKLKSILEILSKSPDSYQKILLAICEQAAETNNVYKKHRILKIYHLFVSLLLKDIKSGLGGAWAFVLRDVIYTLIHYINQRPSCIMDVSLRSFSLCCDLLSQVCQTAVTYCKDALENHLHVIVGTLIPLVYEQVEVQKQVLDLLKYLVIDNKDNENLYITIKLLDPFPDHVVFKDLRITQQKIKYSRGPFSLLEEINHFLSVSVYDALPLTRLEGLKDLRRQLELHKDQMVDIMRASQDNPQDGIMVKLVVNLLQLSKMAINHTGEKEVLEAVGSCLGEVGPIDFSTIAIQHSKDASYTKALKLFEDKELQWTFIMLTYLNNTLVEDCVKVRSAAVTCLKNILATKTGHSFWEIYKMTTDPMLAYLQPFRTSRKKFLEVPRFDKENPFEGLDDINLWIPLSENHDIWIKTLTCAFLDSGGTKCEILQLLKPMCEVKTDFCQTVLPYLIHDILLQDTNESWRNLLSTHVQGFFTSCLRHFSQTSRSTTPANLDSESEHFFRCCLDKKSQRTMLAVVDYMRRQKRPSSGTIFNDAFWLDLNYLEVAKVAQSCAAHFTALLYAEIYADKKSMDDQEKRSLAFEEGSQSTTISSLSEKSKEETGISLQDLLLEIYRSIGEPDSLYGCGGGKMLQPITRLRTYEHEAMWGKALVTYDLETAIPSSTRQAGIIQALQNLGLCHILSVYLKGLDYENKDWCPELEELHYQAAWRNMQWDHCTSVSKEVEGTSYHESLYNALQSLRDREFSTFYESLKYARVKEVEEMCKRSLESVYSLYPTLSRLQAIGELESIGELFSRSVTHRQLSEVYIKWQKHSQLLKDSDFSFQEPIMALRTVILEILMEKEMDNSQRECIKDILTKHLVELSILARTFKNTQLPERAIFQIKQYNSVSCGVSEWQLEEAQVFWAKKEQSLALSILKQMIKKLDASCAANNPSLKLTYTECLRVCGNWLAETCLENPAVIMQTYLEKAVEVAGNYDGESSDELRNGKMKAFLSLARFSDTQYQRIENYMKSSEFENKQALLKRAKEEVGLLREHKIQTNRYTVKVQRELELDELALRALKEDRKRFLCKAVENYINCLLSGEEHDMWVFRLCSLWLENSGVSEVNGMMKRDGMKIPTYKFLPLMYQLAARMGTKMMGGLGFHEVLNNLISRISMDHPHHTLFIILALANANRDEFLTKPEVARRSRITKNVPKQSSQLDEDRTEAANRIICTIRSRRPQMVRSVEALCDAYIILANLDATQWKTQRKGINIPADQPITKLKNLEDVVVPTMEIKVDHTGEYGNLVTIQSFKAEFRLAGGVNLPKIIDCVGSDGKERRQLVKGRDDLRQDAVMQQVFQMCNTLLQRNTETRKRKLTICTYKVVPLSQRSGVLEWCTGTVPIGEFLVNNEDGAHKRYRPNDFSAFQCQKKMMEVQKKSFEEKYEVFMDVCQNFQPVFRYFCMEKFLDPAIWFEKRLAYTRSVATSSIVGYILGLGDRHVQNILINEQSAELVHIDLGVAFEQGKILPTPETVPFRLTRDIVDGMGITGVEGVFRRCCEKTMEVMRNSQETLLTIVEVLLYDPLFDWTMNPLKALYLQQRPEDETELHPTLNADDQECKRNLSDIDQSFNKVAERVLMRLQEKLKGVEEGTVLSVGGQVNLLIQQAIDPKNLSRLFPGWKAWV
The target of another test is DNA-PK (Homo sapiens, UniProt P78527). The following applies: unit inferred; read-out: Specificity for DNA-PK (IC50 determined in vitro); cited from earlier work.
Another test addresses mTORC1 (Homo sapiens, UniProt P42345). Particulars: unit inferred; read-out: Specificity for mTORC1 (IC50 determined in vitro); cited from earlier work.
The next test deals with mTORC2 (Homo sapiens, UniProt P42345). The following applies: unit inferred; read-out: Specificity for mTORC2 (IC50 determined in vitro); cited from earlier work.
In test [2] the target is PI4P5KIα (Homo sapiens, UniProt Q99755). The following applies: first PI4P5KIα line; unit inferred; read-out: Specificity for PI4P5KIα (IC50 determined in vitro); cited from earlier work.
The test system of test [3] is PI4P5KIα. Particulars: second PI4P5KIα line; unit inferred; read-out: Specificity for PI4P5KIα (IC50 determined in vitro); cited from earlier work.
The next test concerns the target T1, PI5P4KIIβ (Homo sapiens, UniProt P78356).
T1 sequence (P78356 1-416): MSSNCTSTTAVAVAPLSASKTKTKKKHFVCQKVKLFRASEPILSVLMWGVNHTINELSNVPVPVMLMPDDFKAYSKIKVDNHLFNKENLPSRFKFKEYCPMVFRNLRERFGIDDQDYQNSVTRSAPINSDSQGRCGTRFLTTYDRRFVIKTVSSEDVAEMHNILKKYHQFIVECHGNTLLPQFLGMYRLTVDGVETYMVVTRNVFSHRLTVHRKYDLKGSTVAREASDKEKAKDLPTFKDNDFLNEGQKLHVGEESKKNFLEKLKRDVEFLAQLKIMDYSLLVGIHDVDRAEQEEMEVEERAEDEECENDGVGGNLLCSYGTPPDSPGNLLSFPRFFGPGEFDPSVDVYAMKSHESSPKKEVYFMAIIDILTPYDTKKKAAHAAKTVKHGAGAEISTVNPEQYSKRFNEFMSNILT
Particulars: unit inferred; read-out: Specificity for PI5P4KIIβ (IC50 determined in vitro); cited from earlier work.

The target in the next test is p110α (Homo sapiens, UniProt P42336). The following applies: unit inferred; read-out: Specificity for p110α (IC50 determined in vitro); cited from earlier work.
For another test, the target named is p110β (Homo sapiens, UniProt P42338). The following applies: unit inferred; read-out: Specificity for p110β (IC50 determined in vitro); cited from earlier work.
The target of another test is p110δ (Homo sapiens, UniProt O00329). The following applies: unit inferred; read-out: Specificity for p110δ (IC50 determined in vitro); cited from earlier work.
In another test the target is p110γ (Homo sapiens, UniProt P48736). Particulars: unit inferred; read-out: Specificity for p110γ (IC50 determined in vitro); cited from earlier work.

`Cc1ccccc1-n1c(Cn2cnc3c(N)ncnc32)nc2cccc(C)c2c1=O` [IC87114]: in [1] (1 μM), the “Foxp3 induction at 1 μM” value is on record as 15%. The “increase in Foxp3 expressing cells over and above TCR deprivation alone” value in test [1] (IC-87114 down to 0.01 μM) is 10-15%. The concentration for half-maximal inhibition (IC50) at PI3KC2α, on PI3KC2β, on PI3KC2γ, on hsVPS34, on PI4KIIα and on PI4KIIIα was above 100 µM in each case. Moreover, the IC50 at PI4KIIIβ, at ATR, at ATM, on DNA-PK, at mTORC1 and on mTORC2 was above 100 µM throughout. The IC50 on PI4P5KIα [2], in the test on PI4P5KIα [3] and on PI5P4KIIβ was above 100 µM each time.
As for `Cc1ccccc1Oc1cccc2c(=O)cc(N3CCOCC3)[nH]c12` [TGX115], the “effect on Foxp3 expression at 0.1 μM” value in [1] (0.1 μM) is “did not affect Foxp3 expression”. Further, the “effect on Foxp3 expression at 10 μM” value is recorded as “slight impact on Foxp3 expression” in test [1] and “very little effect” in [1] (listed as TGX-115). Further, the IC50 on p110α is 61 µM; at p110β, 0.13 µM; on p110δ, 0.63 µM; at p110γ, 100 µM; at PI3KC2α, above 100 µM; on PI3KC2β, 50 µM. Further, the 50% inhibitory concentration (IC50) on PI3KC2γ is 100 µM; at hsVPS34 it was 5.2 µM; on PI4KIIα it was above 100 µM; at PI4KIIIα, above 100 µM; on PI4KIIIβ, above 100 µM; on ATR, above 100 µM. In addition, the IC50 on ATM was 20 µM; on DNA-PK, 1.2 µM; at mTORC1 it was above 100 µM; at mTORC2, above 100 µM; on PI4P5KIα [2], above 100 µM; in the test with PI4P5KIα [3] it was above 100 µM. On PI5P4KIIβ, the half-inhibitory concentration (IC50) was above 100 µM.
